According to PubChem BioAssay (NCI):
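Dose response: 5 concentrations. Exposure: 48 h. Format: 96-well plates. Endpoint: linear interpolation; highest concentration if not reached. At the GI50, growth is halved. TGI is the concentration that stops growth completely.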

Key:
Assay in all cases: NCI tumour cell line growth inhibition, 48 h
[1] = test system: RPMI-8226 leukemia
[2] = test system: K-562 leukemia
[3] = test system: HS 578T breast
[4] = test system: SNB-19 CNS
[5] = test system: HT29 colon
[6] = test system: U251 CNS
[7] = test system: SK-MEL-5 melanoma
[8] = test system: SR leukemia
[9] = test system: MDA-MB-231 breast
[10] = test system: MOLT-4 leukemia
[11] = test system: ACHN renal
[12] = test system: CCRF-CEM leukemia
[13] = test system: HCC-2998 colon
[14] = test system: OVCAR-8 ovarian
[15] = test system: RXF 393 renal
[16] = test system: SF-539 CNS
[17] = test system: LOX IMVI melanoma
[18] = test system: A549 NSCLC
[19] = test system: MALME-3M melanoma
[20] = test system: UO-31 renal
[21] = test system: CAKI-1 renal
[22] = test system: OVCAR-3 ovarian
[23] = test system: SW-620 colon
[24] = test system: A498 renal
[25] = test system: MDA-MB-435
[26] = test system: M14 melanoma
[27] = test system: NCI/ADR-RES ovarian
[28] = test system: NCI-H460 lung
[29] = test system: NCI-H522 lung
[30] = test system: SK-OV-3 ovarian
[31] = test system: KM12 colon
[32] = test system: MCF7 breast
[33] = test system: SF-268 CNS
[34] = test system: NCI-H226 lung
[35] = test system: NCI-H23 lung
[36] = test system: COLO 205 colon
[37] = test system: HOP-62 NSCLC
[38] = test system: SF-295 CNS
[39] = test system: HOP-92 NSCLC
[40] = test system: DU-145 prostate
[41] = test system: SNB-75 CNS
[42] = test system: OVCAR-4 ovarian
[43] = test system: SK-MEL-28 melanoma
[44] = test system: HL-60(TB) leukemia
[45] = test system: BT-549 breast
[46] = test system: TK-10 renal
[47] = test system: UACC-62 melanoma
[48] = test system: SN12C renal
[49] = test system: T-47D breast
[50] = test system: IGROV1 ovarian
[51] = test system: HCT-116 colon
[52] = test system: 786-0 renal
[53] = test system: UACC-257 melanoma
[54] = test system: HCT-15 colon
[55] = test system: OVCAR-5 ovarian
[56] = test system: SK-MEL-2 melanoma
[57] = test system: EKVX NSCLC
[58] = test system: PC-3 prostate

O=[n+]1c2ccccc2n([O-])c2cc(Cl)ccc21
GI50 [1]: 2.45 µM | TGI [1]: 5.98 µM | GI50 [2]: 3.02 µM | TGI [2]: 12.8 µM | GI50 [3]: 2.95 µM | TGI [3]: 21.7 µM | GI50 [4]: 9.46 µM | TGI [4]: 39.5 µM | GI50 [5]: 3.6 µM | TGI [5]: 13.5 µM | GI50 [6]: 2.71 µM | TGI [6]: 12 µM | GI50 [7]: 9.11 µM | TGI [7]: 21.6 µM | GI50 [8]: 2.19 µM | TGI [8]: 7.53 µM | GI50 [9]: 4.21 µM | TGI [9]: 22.2 µM | GI50 [10]: 0.385 µM | TGI [10]: 2.03 µM | GI50 [11]: 2.91 µM | TGI [11]: 9.95 µM | GI50 [12]: 0.533 µM | TGI [12]: 5 µM | GI50 [13]: 6.81 µM | TGI [13]: 20.5 µM | GI50 [14]: 3.5 µM | TGI [14]: 15.4 µM | GI50 [15]: 3.03 µM | TGI [15]: 10 µM | GI50 [16]: 3.5 µM | TGI [16]: 11.2 µM | GI50 [17]: 2.83 µM | TGI [17]: 11.9 µM | GI50 [18]: 3.17 µM | TGI [18]: 22.9 µM | GI50 [19]: 7.76 µM | TGI [19]: 20.8 µM | GI50 [20]: 3.52 µM | TGI [20]: 15 µM | GI50 [21]: 3.28 µM | TGI [21]: 13.1 µM | GI50 [22]: 3.48 µM | TGI [22]: 12.3 µM | GI50 [23]: 3.73 µM | TGI [23]: 18.7 µM | GI50 [24]: 1.14 µM | TGI [24]: 14.7 µM | GI50 [25]: 11.3 µM | TGI [25]: 23.7 µM | GI50 [26]: 10.7 µM | TGI [26]: 29.9 µM | GI50 [27]: 4.31 µM | TGI [27]: 40.3 µM | GI50 [28]: 2.05 µM | TGI [28]: 14.7 µM | GI50 [29]: 1.47 µM | TGI [29]: 3.11 µM | GI50 [30]: 7.12 µM | TGI [30]: 20.4 µM | GI50 [31]: 5.77 µM | TGI [31]: 18.4 µM | GI50 [32]: 3.72 µM | TGI [32]: 16.1 µM | GI50 [33]: 2.99 µM | TGI [33]: 10.7 µM | GI50 [34]: 7.32 µM | TGI [34]: 25.6 µM | GI50 [35]: 4 µM | TGI [35]: 25 µM | GI50 [36]: 4.65 µM | TGI [36]: 18.2 µM | GI50 [37]: 3.15 µM | TGI [37]: 10.9 µM | GI50 [38]: 4.32 µM | TGI [38]: 20.9 µM | GI50 [39]: 2.14 µM | TGI [39]: 8.29 µM | GI50 [40]: 11.3 µM | TGI [40]: 24.1 µM | GI50 [41]: 3.18 µM | TGI [41]: 15 µM | GI50 [42]: 2.67 µM | TGI [42]: 26.6 µM | GI50 [43]: 16.4 µM | TGI [43]: 97.4 µM | GI50 [44]: 2.07 µM | TGI [44]: 4.47 µM | GI50 [45]: 5.2 µM | TGI [45]: 24.1 µM | GI50 [46]: 4.96 µM | TGI [46]: 18 µM | GI50 [47]: 6.17 µM | TGI [47]: 23.8 µM | GI50 [48]: 3.52 µM | TGI [48]: 14.1 µM | GI50 [49]: 1.96 µM | TGI [49]: 11.7 µM | GI50 [50]: 1.86 µM | TGI [50]: 6.95 µM | GI50 [51]: 3.37 µM | TGI [51]: 12.7 µM | GI50 [52]: 3.12 µM | TGI [52]: 13.4 µM | GI50 [53]: 5.49 µM | TGI [53]: 18.1 µM | GI50 [54]: 2.55 µM | TGI [54]: 8.59 µM | GI50 [55]: 15.7 µM | TGI [55]: 33.5 µM

CCOC(=O)c1c(C)nc2c(c1N)CC(=O)N2CCc1ccccc1
GI50 [1]: 0.345 µM | TGI [1]: 5.6 µM | GI50 [2]: 0.424 µM | TGI [2]: > 100 µM | GI50 [3]: 12.4 µM | TGI [3]: 62.3 µM | GI50 [56]: 0.53 µM | TGI [56]: 6.8 µM | GI50 [4]: 4.52 µM | TGI [4]: 23.3 µM | GI50 [5]: 0.327 µM | TGI [5]: 14.5 µM | GI50 [6]: 0.997 µM | TGI [6]: 18.4 µM | GI50 [7]: 0.939 µM | TGI [7]: 13.6 µM | GI50 [8]: 0.444 µM | TGI [8]: 28.1 µM | GI50 [9]: 0.896 µM | TGI [9]: 14 µM | GI50 [10]: 0.822 µM | TGI [10]: 21.4 µM | GI50 [11]: 0.595 µM | TGI [11]: 6.48 µM | GI50 [12]: 0.389 µM | TGI [12]: 14.4 µM | GI50 [13]: 3.49 µM | TGI [13]: 12.8 µM | GI50 [14]: 3.17 µM | TGI [14]: 16.7 µM | GI50 [15]: 4.05 µM | TGI [15]: 15.3 µM | GI50 [16]: 0.324 µM | TGI [16]: 11.9 µM | GI50 [57]: 6.06 µM | TGI [57]: 68.8 µM | GI50 [17]: 0.384 µM | TGI [17]: 14.7 µM | GI50 [18]: 4.19 µM | TGI [18]: 36.9 µM | GI50 [19]: 1.31 µM | TGI [19]: 4.9 µM | GI50 [20]: 1.03 µM | TGI [20]: 21.9 µM | GI50 [22]: 0.412 µM | TGI [22]: 13.3 µM | GI50 [23]: 0.47 µM | TGI [23]: 11.1 µM | GI50 [24]: 3.2 µM | TGI [24]: 10.8 µM | GI50 [25]: 0.354 µM | TGI [25]: 15.4 µM | GI50 [26]: 0.845 µM | TGI [26]: 3.47 µM | GI50 [27]: 2.05 µM | TGI [27]: 27.2 µM | GI50 [28]: 1.77 µM | TGI [28]: 14.1 µM | GI50 [29]: 0.283 µM | TGI [29]: 1.11 µM | GI50 [30]: 8.46 µM | TGI [30]: 36.7 µM | GI50 [31]: 0.35 µM | TGI [31]: 15.5 µM | GI50 [32]: 0.306 µM | TGI [32]: 17.1 µM | GI50 [33]: 0.477 µM | TGI [33]: 19 µM | GI50 [58]: 0.579 µM | TGI [58]: 24.2 µM | GI50 [34]: 18.7 µM | TGI [34]: 69 µM | GI50 [35]: 5.46 µM | TGI [35]: 23 µM | GI50 [36]: 0.518 µM | TGI [36]: 13.6 µM | GI50 [37]: 0.472 µM | TGI [37]: 14.7 µM | GI50 [38]: 2.16 µM | TGI [38]: 33.1 µM | GI50 [39]: 0.496 µM | TGI [39]: 18.7 µM | GI50 [40]: 0.881 µM | TGI [40]: 16 µM | GI50 [41]: 1.37 µM | TGI [41]: 18.1 µM | GI50 [42]: 1.48 µM | TGI [42]: 3.26 µM | GI50 [43]: 2.35 µM | TGI [43]: 12.1 µM | GI50 [44]: 0.374 µM | TGI [44]: 13.1 µM | GI50 [46]: 0.596 µM | TGI [46]: 15 µM | GI50 [47]: 0.629 µM | TGI [47]: 17.2 µM | GI50 [48]: 0.434 µM | TGI [48]: 18.3 µM | GI50 [49]: 0.962 µM | TGI [49]: 22.9 µM | GI50 [50]: 1.26 µM | TGI [50]: 13 µM | GI50 [51]: 0.32 µM | TGI [51]: 11.2 µM | GI50 [52]: 0.466 µM | TGI [52]: 17.1 µM | GI50 [53]: 4.68 µM | TGI [53]: 19.4 µM | GI50 [54]: 0.485 µM | TGI [54]: 13.6 µM | GI50 [55]: 8.2 µM | TGI [55]: 24.9 µM
